The record followed here is patent US9403831B2, “Triazolopyrazine derivative and use thereof” (KOREA RESEARCH INSTITUTE OF CHEMICAL TECHNOLOGY, priority 2013, dated 2016).

Counter-ions that a name gives are not always drawn.

Experiment [1] concerns gastric cancer cell line Hs746T. The experiment in a line: Cancer cell proliferation inhibitory test (SRB or MTS assay, 72 hours). In kind it is cell-based. To be noted: Homo sapiens, cancer cell (Hs746T) proliferation inhibition, culturing with compound for 72 hours. The method, then: The drug used in the test was diluted to a desired concentration as a test medium, and the final concentration of dimethyl sulfoxide was 0.5% or less.
All the cancer cell lines used in the test originated from the human body, and gastric cancer cell lines Hs746T and MKN-45 were used.
5×10^3 cells of Hs746T were dispensed to each well of the 96-well flat bottom micro-plate. MKN-45 was dispensed at 1×10^4 cells. The cells were cultured for 24 hours, so that the cells adhered to the bottom, and then the culture liquid was removed. The culture liquid containing each of the compounds of the present invention was added, followed by culturing for 72 hours. After the culturing with the compound was completed, the cytotoxicity was measured using protein stain reagent SRB or MTS assay.
Specifically, after the culturing with the compound of the present invention was completed, the cultured liquid was removed. Each well was treated with a cool TCA solution, and allowed to stand at 4° C. for 1 hour to fix cells. The TCA solution was removed, followed by drying at room temperature, and then a stain solution containing 0.4% SRB dissolved in 1% acetic acid solution was added, and then the mixture was allowed to stand for 30 minutes to stain cells. […] The absorbance of each well was measured at a wavelength range of 520 nm using an Eliza reader (micro-plate reader).
The drug cytotoxicity was measured from the OD values for the well added without the drug (C), each well added with the drug (T), and the well initially added with the drug (Tz): [(T−Tz)/(C−Tz)]×100 for […]; or [(T−Tz)/(Tz)]×100 for Tz>T.
The cancer cell inhibitory activity measurement using MTS assay was conducted as follows. Specifically, after the culturing with the compound of the present invention was completed, the PMS solution and MTS solution constituting the CellTiter 96® AQueous Non-Radioactive Cell Proliferation Assay product from Promega Co. were mixed, and 20 μL was put into each well. After the cells were placed in an incubator for 4 hours, and then taken out and allowed to stand at room temperature for 10 minutes.

A further experiment addresses c-Met enzyme (Homo sapiens (Human), UniProt P08581). The experiment in a line: c-Met kinase inhibitory activity (DELFIA time-resolved fluorescence). The experiment is classed as biochemical. To be noted: c-Met kinase activity reduced to 50%. The method, then:
The c-Met kinase inhibitory activity was analyzed using dissociation enhanced lanthanide fluoro-immunoassay (DELFIA, Perkin Elmer), which is a kind of time-resolved fluorescence (TRF). […] of the compound prepared in the present invention, as a test compound, was put in a Greiner 96-well V-shaped bottom plate, and a tyrosin kinase buffer ([…]) mixed with a c-Met enzyme was added thereto, and then the enzyme and the test compound were stirred for 15 minutes, followed by culturing. An ATP solution ([…]) was added thereto to proceed with a kinase reaction at room temperature for 30 minutes, and then a 50 mM […] solution (EDTA, […]) was added to stop the reaction. After that, the reaction mixture was transferred to a plate coated with Streptavidin, followed by culturing under shaking. After 2 hours, the cultured material was washed three times with a PBS-T buffer (PBS 0.05% Tween 20).
The europium-labeled anti-phosphotyrosine antibody was diluted to 1:[…] of the diluent was added per well, followed by culturing under shaking. After 1 hour, the cultured material was washed three times with a PBS-T buffer (PBS 0.05% Tween 20).

Sequence of c-Met enzyme (P08581 25-1390): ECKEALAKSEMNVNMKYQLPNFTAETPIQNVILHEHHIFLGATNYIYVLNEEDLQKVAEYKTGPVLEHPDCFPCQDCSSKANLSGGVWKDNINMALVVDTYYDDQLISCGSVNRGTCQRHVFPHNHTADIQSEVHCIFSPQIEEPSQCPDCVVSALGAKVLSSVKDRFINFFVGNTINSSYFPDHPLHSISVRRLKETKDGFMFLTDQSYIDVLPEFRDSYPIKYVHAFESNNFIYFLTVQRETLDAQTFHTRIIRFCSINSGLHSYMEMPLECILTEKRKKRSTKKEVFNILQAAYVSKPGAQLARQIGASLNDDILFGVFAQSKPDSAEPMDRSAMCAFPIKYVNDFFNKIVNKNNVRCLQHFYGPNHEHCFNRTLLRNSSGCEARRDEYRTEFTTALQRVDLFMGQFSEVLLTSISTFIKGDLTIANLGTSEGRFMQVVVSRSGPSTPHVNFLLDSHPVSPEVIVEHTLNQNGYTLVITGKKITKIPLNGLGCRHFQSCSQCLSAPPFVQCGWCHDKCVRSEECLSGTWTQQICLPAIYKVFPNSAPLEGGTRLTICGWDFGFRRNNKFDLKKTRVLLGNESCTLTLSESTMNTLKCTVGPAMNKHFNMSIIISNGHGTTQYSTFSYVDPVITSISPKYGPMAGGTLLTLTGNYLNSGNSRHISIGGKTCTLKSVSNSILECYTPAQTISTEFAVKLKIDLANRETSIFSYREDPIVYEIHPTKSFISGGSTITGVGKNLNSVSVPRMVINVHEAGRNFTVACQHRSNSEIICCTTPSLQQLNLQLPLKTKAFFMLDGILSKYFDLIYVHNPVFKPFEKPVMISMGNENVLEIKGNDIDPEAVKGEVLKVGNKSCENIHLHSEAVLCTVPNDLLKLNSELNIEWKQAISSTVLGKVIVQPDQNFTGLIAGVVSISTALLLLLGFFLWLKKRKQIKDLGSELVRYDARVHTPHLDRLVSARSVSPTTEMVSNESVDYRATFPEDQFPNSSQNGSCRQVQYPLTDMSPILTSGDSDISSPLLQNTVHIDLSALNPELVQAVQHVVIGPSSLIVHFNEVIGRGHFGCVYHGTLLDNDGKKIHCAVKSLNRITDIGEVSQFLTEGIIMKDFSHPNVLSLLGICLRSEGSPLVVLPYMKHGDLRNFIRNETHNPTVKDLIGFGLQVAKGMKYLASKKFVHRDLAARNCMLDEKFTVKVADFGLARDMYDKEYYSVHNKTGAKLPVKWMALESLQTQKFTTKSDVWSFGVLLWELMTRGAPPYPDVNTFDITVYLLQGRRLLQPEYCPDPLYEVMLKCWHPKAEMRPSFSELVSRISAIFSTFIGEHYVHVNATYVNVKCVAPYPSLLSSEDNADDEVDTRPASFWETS

Take `Cn1cc(-c2cnc3nnn(C[C@@H]4CN(c5ncc(-c6cnn(C7CCNCC7)c6)cn5)CCO4)c3n2)cn1` [Chemical formula 4, (S)-2-((6-(1-methyl-1H-pyrazol-4-yl)-1H-[1,2,3]triazolo[4,5-b]pyrazin-1-yl)methyl)-4-(5-(1-(piperidin-4-yl)-1H-pyrazol-4-yl)pyrimidin-2-yl)morpholine HCl salt]: the 50% inhibitory concentration (IC50) was found to be 1.2 nM in experiment [1] and 11 nM at c-Met enzyme.
Take `CN1CCC(n2cc(-c3cnc(N4CCO[C@H](Cn5nnc6ncc(-c7cnn(C)c7)nc65)C4)nc3)cn2)CC1` [Chemical formula 7, (S)-2-((6-(1-methyl-1H-pyrazol-4-yl)-1H-[1,2,3]triazolo[4,5-b]pyrazin-1-yl)methyl)-4-(5-(1-(1-methylpiperidin-4-yl)-1H-pyrazol-4-yl)pyrimidin-2-yl)morpholine]: the IC50 was 0.11 nM in experiment [1] and 6 nM at c-Met enzyme.
Turning to `Cn1cc(-c2cnc3nnn(C[C@@H]4CN(c5ncc(-c6cnn(C7CCN(CCO)CC7)c6)cn5)CCO4)c3n2)cn1` [Chemical formula 8, (S)-2-(4-(4-(2-(2-((6-(1-methyl-1H-pyrazol-4-yl)-1H-[1,2,3]triazolo[4,5-b]pyrazin-1-yl)methyl)morpholino)pyrimidin-5-yl)-1H-pyrazol-1-yl)piperidin-1-yl)ethanol], the values for the IC50 (in experiment [1]; at c-Met enzyme) were 0.14 nM and 4 nM, respectively.
In the case of `Cn1cc(-c2cnc3nnn(C[C@@H]4CN(c5ncc(C6=CCNCC6)cn5)CCO4)c3n2)cn1` [Chemical formula 9, (S)-2-((6-(1-methyl-1H-pyrazol-4-yl)-1H-[1,2,3]triazolo[4,5-b]pyrazin-1-yl)methyl)-4-(5-(1,2,3,6-tetrahydropyridin-4-yl)pyrimidin-2-yl)morpholine hydrochloride], the IC50 came to 0.95 nM in experiment [1] and 3 nM on c-Met enzyme.
For `CN1CC=C(c2cnc(N3CCO[C@H](Cn4nnc5ncc(-c6cnn(C)c6)nc54)C3)nc2)CC1` [Chemical formula 10, (S)-4-(5-(1-methyl-1,2,3,6-tetrahydropyridin-4-yl)pyrimidin-2-yl)-2-((6-(1-methyl-1H-pyrazol-4-yl)-1H-[1,2,3]triazolo[4,5-b]pyrazin-1-yl)methyl)morpholine], the IC50 in experiment [1] came out at 1.1 nM; against c-Met enzyme, 4 nM.
With `Cn1cc(-c2cnc3nnn(C[C@@H]4CN(c5ncc(-c6cnn(CCO)c6)cn5)CCO4)c3n2)cn1` [Chemical formula 11, (S)-2-(4-(2-(2-((6-(1-methyl-1H-pyrazol-4-yl)-1H-[1,2,3]triazolo[4,5-b]pyrazin-1-yl)methyl)morpholino)pyrimidin-5-yl)-1H-pyrazol-1-yl)ethanol hydrochloride], the IC50 in experiment [1] was found to be 0.93 nM; on c-Met enzyme it was 3 nM.
For `Cn1cc(-c2cnc3nnn(C[C@@H]4CN(c5ncc(C6=CCN(CCO)CC6)cn5)CCO4)c3n2)cn1` [Chemical formula 12, (S)-2-(4-(2-(2-((6-(1-methyl-1H-pyrazol-4-yl)-1H-[1,2,3]triazolo[4,5-b]pyrazin-1-yl)methyl)morpholino)pyrimidin-5-yl)-5,6-dihydropyridin-1(2H)-yl)ethanol], the IC50 in experiment [1] turned out to be 0.96 nM; at c-Met enzyme, 4 nM.
For the molecule `Cn1cc(-c2cnc3nnn(C[C@@H]4CN(c5ncc(-c6ccc(OCCN7CCOCC7)c(F)c6)cn5)CCO4)c3n2)cn1` [Chemical formula 13, (S)-4-(5-(3-fluoro-4-(2-morpholinoethoxy)phenyl)pyrimidin-2-yl)-2-((6-(1-methyl-1H-pyrazol-4-yl)-1H-[1,2,3]triazolo[4,5-b]pyrazin-1-yl)methyl)morpholine], the IC50 came to 0.86 nM in experiment [1] and 15 nM against c-Met enzyme.
`CN1CCN(CCOc2ccc(-c3cnc(N4CCO[C@H](Cn5nnc6ncc(-c7cnn(C)c7)nc65)C4)nc3)cc2)CC1` [Chemical formula 15, (S)-2-((6-(1-methyl-1H-pyrazol-4-yl)-1H-[1,2,3]triazolo[4,5-b]pyrazin-1-yl)methyl)-4-(5-(4-(2-(4-methylpiperazin-1-yl)ethoxy)phenyl)pyrimidin-2-yl)morpholine] showed an IC50 on c-Met enzyme of 6 nM.
As to `Cn1cc(-c2cnc3nnn(C[C@@H]4CN(c5ncc(OCCN6CCOCC6)cn5)CCO4)c3n2)cn1` [Chemical formula 16, (S)-2-((6-(1-methyl-1H-pyrazol-4-yl)-1H-[1,2,3]triazolo[4,5-b]pyrazin-1-yl)methyl)-4-(5-(2-morpholinoethoxy)pyrimidin-2-yl)morpholine], in experiment [1], the IC50 was determined as 2.1 nM.
`N#Cc1cc(-c2cnc3nnn(C[C@@H]4CN(c5ncc(C6=CCN(CCO)CC6)cn5)CCO4)c3n2)ccc1F` [Chemical formula 38, (S)-2-fluoro-5-(1-((4-(5-(1-(2-hydroxyethyl)-1,2,3,6-tetrahydropyridin-4-yl)pyrimidin-2-yl)morpholine-2-yl)methyl)-1H-[1,2,3]triazolo[4,5-b]pyrazin-6-yl)benzonitrile]: half-maximal inhibition against c-Met enzyme (IC50) was put at 3 nM.
The same measure, in the same setting: the value for `CN1CCN(Cc2ccc(-c3cnc(N4CCO[C@H](Cn5nnc6ncc(-c7ccc(F)c(C#N)c7)nc65)C4)nc3)cc2F)CC1` [Chemical formula 39, (S)-2-fluoro-5-(1-((4-(5-(3-fluoro-4-((4-methylpiperazin-1-yl)methyl)phenyl)pyrimidin-2-yl)morpholine-2-yl)methyl)-1H-[1,2,3]triazolo[4,5-b]pyrazin-6-yl)benzonitrile] was 2 nM.
Still for that read-out and setting: then `CN1CCN(Cc2ccc(-c3cnc(N4CCO[C@H](Cn5nnc6ncc(-c7cnn(C)c7)nc65)C4)nc3)cc2F)CC1` [Chemical formula 40, (S)-4-(5-(3-fluoro-4-((4-methylpiperazin-1-yl)methyl)phenyl)pyrimidin-2-yl)-2-((6-(1-methyl-1H-pyrazol-4-yl)-1H-[1,2,3]triazolo[4,5-b]pyrazin-1-yl)methyl)morpholine], with 2 nM; and `Cn1cc(-c2cnc3nnn(C[C@@H]4CN(c5ncc(-c6ccc(CN7CCOCC7)c(F)c6)cn5)CCO4)c3n2)cn1` [Chemical formula 42, (S)-4-(5-(3-fluoro-4-(morpholinomethyl)phenyl)pyrimidin-2-yl)-2-((6-(1-methyl-1H-pyrazol-4-yl)-1H-[1,2,3]triazolo[4,5-b]pyrazin-1-yl)methyl)morpholine], with 4 nM.
As to `CC(=O)N1CCN(Cc2ccc(-c3cnc(N4CCO[C@H](Cn5nnc6ncc(-c7cnn(C)c7)nc65)C4)nc3)cc2)CC1` [Chemical formula 45, (S)-1-(4-(4-(2-(2-((6-(1-methyl-1H-pyrazol-4-yl)-1H-[1,2,3]triazolo[4,5-b]pyrazin-1-yl)methyl)morpholino)pyrimidin-5-yl)benzyl)piperazin-1-yl)ethanone], inhibition against c-Met enzyme was half-maximal at 8 nM (IC50).
On c-Met enzyme, `CN1CCN(C(=O)c2ccc(-c3cnc(N4CCO[C@H](Cn5nnc6ncc(-c7cnn(C)c7)nc65)C4)nc3)cc2)CC1` [Chemical formula 47, (S)-(4-(2-(2-((6-(1-methyl-1H-pyrazol-4-yl)-1H-[1,2,3]triazolo[4,5-b]pyrazin-1-yl)methyl)morpholino)pyrimidin-5-yl)phenyl)(4-methylpiperazin-1-yl) methanone] showed an IC50 of 13 nM.
Molecule `CN1CCN(C(=O)c2ccc(-c3cnc(N4CCC[C@H](Cn5nnc6ncc(-c7cnn(C)c7)nc65)C4)nc3)cc2)CC1` [Chemical formula 48, (S)-(4-(2-(3-((6-(1-methyl-1H-pyrazol-4-yl)-1H-[1,2,3]triazolo[4,5-b]pyrazin-1-yl)methyl)piperidin-1-yl)pyrimidin-5-yl)phenyl)(4-methylpiperazin-1-yl)methanone] yielded an IC50 against c-Met enzyme of 6 nM.
In turn, `CN1CCN(Cc2ccc(-c3cnc(N4CCO[C@H](Cn5nnc6ncc(-c7cccc(C#N)c7)nc65)C4)nc3)cc2)CC1` [Chemical formula 49, (S)-3-(1-((4-(5-(4-((4-methylpiperazin-1-yl)methyl)phenyl)pyrimidin-2-yl)morpholin-2-yl)methyl)-1H-[1,2,3]triazolo[4,5-b]pyrazin-6-yl)benzonitrile] returned an IC50 against c-Met enzyme of 8 nM.
